Key:
[1] = tested on: mice; test: acute toxicity (LD50) in mice; format: in vivo, mouse; settings: for B - lethal dose (LD50) to mice, intraperitoneally: intraperitoneal; for B - lethal dose (LD50) to mice, intraperitoneally / A - lethal dose (LD50) to mice, per os: Table 3; for relative toxicity compared with the 4-hydroxy compound (in words): 4β-esters compared with Compound No. 1246
Excerpt: (§1) In the Table 3 which follows are listed results of tests pertaining to the effectiveness of various compounds that are disclosed herein. The results are included in the several columns under letters whose significance is as follows:
(§2) A - lethal dose (LD50) to mice in milligrams per kilogram of body weight of the mouse when administered per os.
(§3) B - lethal dose (LD50) to mice in milligrams per kilogram of body weight of the mouse when administered intraperitoneally.
(§4) A. lethal dose (LD50) to mice in milligrams per kilogram body weight of the mouse when administered per os.
(§5) B. lethal dose (LD50) to mice in milligrams per kilogram body weight of the mouse administered intraperitoneally.
(§6) The values specified in Tables 4 and 5 hereinafter refer to milligrams per kilogram of body weight of the mouse.
(§7) Tests performed in accordance with the procedure described by Campbell and Richter in Acta Pharmacol. et Toxicol., vol. […] This is indicated by the results that are reported in Table 5 in which the headings A and F have the same significance as hereinbefore while the values in the column heading L pertain to the dose in milligrams per kilogram of body weight that was required to produce a lowering of the rectal temperature, which are values indicative of the depressant effect of a compound upon the central nervous system.

[2] = tested on: mouse; test: ataxia in mice; format: in vivo; settings: mouse; for C - ataxia: dose required to produce ataxia in a mouse: Table 3
Excerpt: as §1
C - ataxia: Dose in milligrams per kilogram of body weight required to produce ataxia in a mouse.

[3] = tested on: mice; test: narcosis (lateral position) in mice; format: in vivo, mouse; settings: mouse; for ED50: ip, 0.05 h, read-out: D - narcosis (lateral position): dose (ED50) which produces narcosis for 3 minutes in 50% of the mice, intraperitoneal, narcosis for 3 minutes, Table 3; for narcosis (in words): comparison of epimers
Excerpt: (§8) In the Table 3 which follows are listed results of tests pertaining to the effectiveness of various compounds that are disclosed herein.

[4] = tested on: mouse; test: prolongation of narcosis produced by hexobarbital in mice; format: in vivo; settings: for E - dose which prolongs narcosis produced by hexobarbital in a mouse by a factor of 4: factor of 4, Table 3; for prolongation of narcosis produced by hexobarbital (in words): comparison of epimers
Excerpt: as §8

[5] = tested on: mouse; test: sedative effect, comparison of esters with 4-hydroxy compounds; format: in vivo; settings: for sedative effect relative to the corresponding hydroxy compound (in words): compared with corresponding hydroxy compounds, Compound No. 1561; for sedative effect or ataxia relative to the 4-hydroxy compound (in words): 4β-esters compared with Compound No. 1246
Excerpt: The effectiveness of the 2,9-dioxatricyclo[4.3.1.0^3,7 ]decanes of the present invention as narcotics is obviously sterospecifically related to the 4αconfiguration. Particularly surprising is the narcotic effect of the esters as compared to the 4-hydroxy compounds. Whereas nearly 300 or even 800 milligrams per kilogram of the 4-hydroxy compounds are required to induce narcosis, the required doses of the carbamates is only at most 100 milligrams per kilogram and their toxicity is in general very low.

[6] = acute toxicity in cats, intravenous; settings: cat, in vivo, read-out: lethal dose (LD50) for cats
Procedure: (§9) The toxicity and narcotic effectiveness of this compound were determined in tests with cats and dogs. […] The intravenous administration of a dose equivalent to 5 milligrams per kilogram of body weight to cats produced a narcosis that persisted for 10 minutes, whereas doses of 10 and 15 milligrams per kilogram produced narcoses that persisted for 25 and 60 minutes, respectively.

[7] = tested on: cats; test: narcosis in cats, intravenous; format: in vivo, cat
Procedure: as §9

[8] = tested on: dogs; test: narcosis in dogs, intravenous; format: in vivo, dog; settings: Canis lupus familiaris, narcosis for 1 hour, read-out: dose required to produce a narcosis that persisted for 1 hour
Procedure: In dogs a dose of 17.5 milligrams of the compound per kilogram of body weight administered intravenously was required to produce a narcosis that persisted for 1 hour.

[9] = acute toxicity (LD50) in mice; format: in vivo, mouse; settings: mouse, in vivo, mouse
Excerpt: as §1, §2, §3, §4, §5, §6, §7

[10] = tested on: white mice; test: ptosis test (Campbell and Richter screening); format: in vivo, mouse; settings: for dose producing ptosis relative to the 4-hydroxy compound (in words): compared with Compound No. 1561; for F ptosis test: mouse, Table 5
Excerpt: The sedative and hypnotic effectiveness of the compounds of the invention were also ascertained by screening tests with white mice described by Campbell and Richter in Acta Pharmacol. et Toxicol. 25 (1967) page 345. In Table 4 the results of various specific screening tests are listed. These tests were as follows:
as §6, §7

[11] = tested on: mouse; test: lowering of the rectal temperature in mice; format: in vivo; settings: mouse; Table 5; read-out: L dose required to produce a lowering of the rectal temperature
Excerpt: as §6, §7

[12] = tested on: white mice; test: spasmolytic effect
[13] = narcosis, Example 17 compound; settings: in vivo
[14] = acute toxicity of Example 17 compound, p.o.; settings: mouse, in vivo, po
[15] = po, per os, Table 5, read-out: A lethal dose (LD50) to mice, per os
[16] = po, per os, Table 3, read-out: A - lethal dose (LD50) to mice, per os

SMILES | B - lethal dose (LD50) to mice, intraperitoneally ([1]; mouse) | A - lethal dose (LD50) to mice, per os ([1]; mouse) | C - ataxia: dose required to produce ataxia in a mouse [2] | E - dose which prolongs narcosis produced by hexobarbital in a mouse by a factor of 4 [4] | sedative effect relative to the corresponding hydroxy compound (in words) [5] | relative toxicity compared with the 4-hydroxy compound (in words) [1] | sedative effect or ataxia relative to the 4-hydroxy compound (in words) [5] | also measured
CCNC(=O)OC1CC2C(C)C3OC(OC)C2C1(C)O3 (stereo not drawn) [Compound No. 2026, 4α-(N-Ethylcarbamyloxy)-8-methoxy-3,10-dimethyl-2,9-dioxatricyclo[4.3.1.0^3,7]decane] | 297 milligrams per kilogram of bod | 518 milligrams per kilogram of bod | 68.1 milligrams per kilogram of bod | 31.6 milligrams per kilogram of bod | greater sedative effect than the corresponding hydroxy compounds | – | – | ED50 [3]: 100 mg/kg
COC1OC2OC3(C)C(OC(=O)NC(C)C)CC(C2C)C13 (stereo not drawn) [Compound No. 2057, 4β-(N-Isopropylcarbamyloxy)-3,10-dimethyl-8-methoxy-2,9-dioxatricyclo[4.3.1.0^3,7]decane] | 1000 milligrams per kilogram of bod | > 1470 milligrams per kilogram of bod | 147 milligrams per kilogram of bod | – | – | reduction in the relative toxicity | distinct increase in the sedative effect or ataxia | dose required for producing ataxia [2]: 147 milligrams per kilogram of body weight; narcosis (in words) [3]: produces neither a narcosis nor a prolongation of narcosis produced by hexobarbital; prolongation of narcosis produced by hexobarbital (in words) [4]: produces neither a narcosis nor a prolongation of narcosis produced by hexobarbital
C=C1C2OC(OC)C3C1CC(OC(=O)NCC)C3(C)O2 (stereo not drawn) [Compound No. 2076, 4α-(N-Ethylcarbamyloxy)-8-methoxy-3-methyl-10-methylene-2,9-dioxatricyclo[4.3.1.0^3,7]decane] | 527 milligrams per kilogram of bod | 1025 milligrams per kilogram of bod | 50 milligrams per kilogram of bod | – | – | – | – | toxicity of the epimers (in words) ([1]; mouse, 2067 versus 2076): substantially the same toxicity; doses effective in producing ataxia (in words) ([2]; 2067 versus 2076): identical doses are effective in producing ataxia; ED50 [3]: < 100 mg/kg; narcosis (in words) [3]: produces narcosis; prolongation of narcosis produced by hexobarbital (in words) [4]: does not prolong narcosis produced by hexobarbital; LD50 [6]: 226 mg/kg; duration of narcosis ([7]; 5 mg/kg): 10 min; duration of narcosis ([7]; 10 mg/kg): 25 min; duration of narcosis ([7]; 15 mg/kg): 60 min; minimal effective dose [8]: 17.5 mg/kg
COC1OC2OC3(C)C(OC(C)=O)CC(C2C)C13 (stereo not drawn) [Compound No. 2080, 4α-Acetoxy-8-methoxy-3,10-dimethyl-2,9-dioxatricyclo[4.3.1.0^3,7]decane] | > 1000 milligrams per kilogram of bod | > 1470 milligrams per kilogram of bod | 50 milligrams per kilogram of bod | – | greater sedative effect than the corresponding hydroxy compounds | – | – | LD50 [9, 15]: 1470 mg/kg; dose producing ptosis relative to the 4-hydroxy compound (in words) [10]: one-fourth or one-half of the dose required of the 4-hydroxy-compound; F ptosis test [10]: 100 milligrams per kilogram of bod; minimal effective dose [11]: 400 mg/kg
COC1OC2OC3(C)C(OC(=O)Nc4ccccc4)CC(C2C)C13 (stereo not drawn) [Example 17, 4β-(N-Phenylcarbamyloxy)-8-methoxy-3,10-dimethyl-2,9-dioxatricyclo[4.3.1.0^3,7]decane] | – | – | – | – | – | – | – | spasmolytic ED50 relative to the ED100 of atropine ([12]; % of the ED100 of atropine): 0.2%; spasmolytic ED50 relative to the ED100 of papaverine ([12]; % of the ED100 of papaverine): 0.1%; narcosis (in words) [13]: did not produce narcosis; LD50 [14]: 1500 mg/kg
CCNC(=O)OC1CC2C(C)C3OC(OC)C2C1(C)O3 (stereo not shown) [compound 1767] | 890 milligrams per kilogram of bod | > 1500 milligrams per kilogram of bod | 400 milligrams per kilogram of bod | – | – | reduction in the relative toxicity | distinct increase in the sedative effect or ataxia | –
CCC(=O)OC1CC2C(C)C3OC(OC)C2C1(C)O3 (stereo not shown) [compound 2044] | 436 milligrams per kilogram of bod | – | 147 milligrams per kilogram of bod | – | – | reduction in the relative toxicity | distinct increase in the sedative effect or ataxia | LD50 [9, 16]: 1470 mg/kg
COC1OC2OC3(C)C(OC(C)=O)CC(C2C)C13 (stereo not shown) [compound 2045] | – | – | 200 milligrams per kilogram of bod | 316 milligrams per kilogram of bod | – | reduction in the relative toxicity | distinct increase in the sedative effect or ataxia | LD50 ([9]; ip, intraperitoneal, Table 3, read-out: B - lethal dose (LD50) to mice, intraperitoneally): 1000 mg/kg; LD50 [9, 16]: 1470 mg/kg
CCC(=O)OC1CC2C(C)C3OC(OC)C2C1(C)O3 (stereo not shown) [compound 2081] | 1379 milligrams per kilogram of bod | > 1470 milligrams per kilogram of bod | 50 milligrams per kilogram of bod | 316 milligrams per kilogram of bod | greater sedative effect than the corresponding hydroxy compounds | – | – | LD50 [9, 15]: > 1470 mg/kg; dose producing ptosis relative to the 4-hydroxy compound (in words) [10]: one-fourth or one-half of the dose required of the 4-hydroxy-compound; F ptosis test [10]: 200 milligrams per kilogram of bod; minimal effective dose [11]: 100 mg/kg
